Results published in patent USRE39192E1, “Supplemented and unsupplemented tissue sealants, methods of their production and use” (American National Red Cross, priority 1990, dated 2006).

Tests used:
[1] = test system: human umbilical endothelial cells; assay: Human umbilical endothelial cells embedded in FG; type: cell-based; conditions: within 24 hours, maintained at least 5 days
Procedure: To study their growth, human umbilical endothelial cells, 10^5 or more cells per ml, were embedded in FG, the protein concentration of which was 4 mg/ml. The concentration of thrombin in the FG was adjusted to 0.6 NIH U/ml. The culture medium used in all of the experiments was M199 (Sigma Chemical Co., St. Louis, Mo.) supplemented with 10% fetal bovine serum, 10 μg/ml streptomycin, 100 U/ml penicillin, 1 ng/ml FGF-1 and 10 U/ml heparin.
As a control, an identical cell suspension was cultured on a surface coated with fibronectin at 10 μg/cm^2. […] FIGS. 9 and 10 show this situation at 24 and 48 hours, respectively.

[2] = test system: human dermal fibroblasts (HDFs); assay: Cell chemotaxis assay (modified Boyden's chamber), human dermal fibroblasts; type: cell-based
Source text: (§1) NIH/3T3 fibroblasts at passage 126 were purchased from the American Type Culture Collection, Rockville, Md. Cultures from passages 129-133 were used in the chemotaxis assays. Cultures were propagated in DMEM supplemented with 10%. Calf serum and approximately 1% antibiotic antimycotic solution. Human dermal fibroblasts (HDFs) were purchased from Clonetics, Inc. (San Diego, Calif.) at passage 2. Cultures from passages 3-5 were used in the chemotaxis assays. Cultures were cultivated in DMEM supplemented with 20% FBS (Hyclone Laboratories, Inc., Logan, Utah) and approximately 1% antibiotic antimycotic solution (Gibco, Grand Island, N.Y.).
(§2) The procedure used to determine cellular chemotaxis was a combination of two known methodologies. A modification of Boyden's chamber was used as follows: Millicell-PCF (Millipore, Inc., Bedford, Mass.) (12.0 μm) 12.0 mm diameter inserts were placed in individual wells of 24 well plates to create the upper and lower chemotaxis chambers. Chemotaxis results were arrived at by performing checkerboard analysis for every combination of cells and growth factors. Concentrations ranging from 0.1, 1, 10, 100 ng/ml with/without added heparin (10 U/ml) were used for FGF-1, FGF-2 (no heparin) and FGF-4 with all the cell types mentioned in the materials section. Briefly, cultures were trypsanized and placed in DMEM+0.1% Bovine Serum Albumin (BSA) (Sigma Chemical Co., St. Louis, Mo.) for approximately one hour at 37° C. in a 5% CO2 humidified chamber. Tow to 2.5×10^5 cells in 50 μl were added per insert to the upper chamber of the setup of the 24 well plates. Treatments were added as mentioned above. The assay was kept at 37° C. in a 5% CO2 humidified chamber for 4 hours. All combinations tested were performed in triplicate. At the end of 4 hours, the plates were removed from the incubator and the filters were stained following the protocol for staining included with the Millicell-PCT inserts. Briefly, the fluid surrounding the inside and outside of the Millicell-PCF inserts were removed. Three percent glutaraldehyde (Sigma Chemical Co., St. Louis, Mo.) was added to the outside and inside of the inserts for approximately 20 minutes. Following removal of the 3.0% glutaraldehyde, 0.5% Triton X-100 (E.M. Science, Cherry Hill, N.J.) was added for 5-7 minutes. On removal of the 0.5% Triton X-100, Fisher's Hematoxylin Solution Gill's Formulation (Fisher Scientific, Newark, Del.) No.1 was added for about 10 minutes. This solution was washed off in running distilled water for about 5 minutes. Using a cotton swab the upper side of the filter was swabbed to remove cells which had not migrated. Filters, were mounted lower side facing up on slides in Crystal Mount™ (Biomedia, Inc., Foster City, Calif.) solution and 10 random field were counted per slide both visually at 400× and at 200×using an Image Analyzing System to automate the enumeration of the cells on the underside of the filters.
(§3) As required, checkerboard analysis was carried out to determine random migration, and positive and negative chemotaxis. Growth factors were added to the upper and/or lower chambers to observe whether cells migrated towards the GF alone (chemotaxis), whether migration was random irrespective of whether the growth factor was added to the upper or lower well (chemokinesis) or whether cell migration was against the chemotactic gradient (negative chemotaxis).

[3] = test system: NIH 3T3 fibroblasts; assay: Cell chemotaxis assay (modified Boyden's chamber), NIH 3T3 fibroblasts; type: cell-based
Source text: as §1
as §2, with “Concentrations ranging from 0.1, 1, 10, 100 ng/ml with/without added heparin (10 U/ml) were used for FGF-1, FGF-2 (no heparin) and FGF-4 with all the cell types mentioned in the materials section.” left out
as §3

[4] = test system: human ovarian carcinoma cell (OVACAR); assay: Growth inhibition of OVCAR cells by eluates of taxol-supplemented fibrin sealant (MTT assay); type: cell-based; conditions: taxol in solid anhydrous form
Procedure: The kinetics of taxol delivery from fibrin sealant were initially evaluated, by incorporating taxol (0.26 mg), either as an anhydrous solid or dissolved in ethanol, into 400 μl fibrin sealant composition. The resulting supplemented fibrin matrices were then placed in 2 ml histidine buffer, and incubated at 37° C. The buffer was exchanged after two days, and again ten days later. The relative concentration of taxol in the resulting eluates determined by measuring their ability to inhibit the growth of a human ovarian carcinoma cell (OVACAR) in vitro (MacPhee et al., In Current Trends in Surgical Tissue Adhesives: Proceedings of the First International Symposium on Surgical Adhesives, R. Saltz and D. Sierra, eds. Springer-Verlag).
Briefly, 1000 OVCAR cells in 100 μl of growth medium were plated into each well of a 96 well culture plate and incubated for 24 hours. A 100 μl volume of various dilutions of the eluates was then placed into the wells (10 wells per dilution), and the plate incubated at 37° C. After five days, the number of cells in each well was measured using the MTT assay (Rapaport et al., American Journal of Clinical Pathology 97:84 (1992)). […] The resulting chromaphore is detected by spectrophotometry at 570 nm. […]

[5] = Saturation concentration of 5-FU in water; type: physicochemical
[6] = Release of 5-FU from FG clots; conditions: clots containing 50 mg of solid anhydrous 5-FU
[7] = Compatibility of TGF-β2 in Topical Fibrinogen Complex (ELISA, bio-assay); conditions: after two weeks in TFC at 2-8° C.
Procedure: Fibrinogen and thrombin were prepared per instruction of the American Red Cross, Rockville, Md. Upon reconstitution, the protein concentration of the Topical Fibrinogen Complex, (TFC) was 120 mg/ml (the standard formulation for hemostasis). The human thrombin was reconstituted with 40 mM CaCl2 to yield a solution at 300 units/ml.
To evaluate the compatibility of transforming growth factor β2 (TGF-β2) in Topical Fibrinogen Complex, TFG-β2 (purified recombinant human protein provided by Genzyme Corp., Framingham, Mass.) was spiked into TFC at 10 and 1 μg/ml. Samples were incubated for two weeks at 2-8° C. TGF-β2 was extracted for analysis by passing the gel-like material through a narrow bore stopcock connected to two syringes.

Molecule: fibronectin [reference compound]
- cell morphology [1]: acquired a cobblestone shape
- concentration of maximal chemotactic response [2]: 20 µg/mL
- concentration of maximal chemotactic response [3]: 20 µg/mL
- migrated cells (checkerboard analysis) ([3]; lower 0 μg/ml, upper 20 μg/ml): 69.6 +/− 12.25
- migrated cells (checkerboard analysis) ([3]; lower 0 μg/ml, upper 50 μg/ml): 62.0 +/− 2.616
- migrated cells (checkerboard analysis) ([3]; lower 10 μg/ml, upper 0 μg/ml): 68.03 +/− 10.793
- migrated cells (checkerboard analysis) ([3]; lower 10 μg/ml, upper 10 μg/ml): 47.53 +/− 5.605
- migrated cells (checkerboard analysis) ([3]; lower 10 μg/ml, upper 20 μg/ml): 64.86 +/− 7.961
- migrated cells (checkerboard analysis) ([3]; lower 10 μg/ml, upper 50 μg/ml): 74.66 +/− 3.946
- migrated cells (checkerboard analysis) ([3]; lower 20 μg/ml, upper 0 μg/ml): 90.53 +/− 5.203
- migrated cells (checkerboard analysis) ([3]; lower 20 μg/ml, upper 10 μg/ml): 88.73 +/− 4.152
- migrated cells (checkerboard analysis) ([3]; lower 20 μg/ml, upper 20 μg/ml): 56.9 +/− 3.289
- migrated cells (checkerboard analysis) ([3]; lower 20 μg/ml, upper 50 μg/ml): 76.23 +/− 1.8190
- migrated cells (checkerboard analysis) ([3]; lower 50 μg/ml, upper 0 μg/ml): 72.43 +/− 8.276
- migrated cells (checkerboard analysis) ([3]; lower 50 μg/ml, upper 10 μg/ml): 91.3 +/− 1.003
- migrated cells (checkerboard analysis) ([3]; lower 50 μg/ml, upper 20 μg/ml): 63.26 +/− 3.835
- migrated cells (checkerboard analysis) ([3]; lower 50 μg/ml, upper 50 μg/ml): 57.46 +/− 2.287
- migrated cells (checkerboard analysis) ([3]; lower compartment 0 μg/ml, upper compartment 10 μg/ml): 62.3 +/− 3.269

Molecule: CC(=O)O[C@H]1C(=O)[C@@]2(C)[C@H]([C@H](OC(=O)c3ccccc3)[C@]3(O)C[C@H](OC(=O)[C@H](O)[C@@H](NC(=O)c4ccccc4)c4ccccc4)C(C)=C1C3(C)C)[C@]1(OC(C)=O)CO[C@@H]1C[C@@H]2O [taxol, paclitaxel]
- time OVCAR cells were significantly inhibited [4]: up to 85 days

Molecule: O=c1[nH]cc(F)c(=O)[nH]1 [5-FU, 5-fluorouracil]
- concentration in water saturated with 5-FU [5]: 17000 µg/mL
- duration of 5-FU delivery [6]: at least 75 hours

B1: TGF-β2: purified recombinant human protein provided by Genzyme Corp., spiked into TFC / fibrin clot (protein, UniProt P61812 303-414, looked up)
Transforming growth factor …: ALDAAYCFRNVQDNCCLRPLYIDFKRDLGWKWIHEPKGYNANFCAGACPYLWSSDTQHSRVLSLYNTINPEASASPCCVSQDLEPLTILYYIGKTPKIEQLSNMIVKSCKCS
- bio-assay of extract [7]: bioactive
